Broadly, the Ki is a dissociation constant, usually derived from enzyme kinetics or from competition with a known ligand. A higher Ki goes with a looser hold on the target.

Data on 19 compounds can be found in patent US8324199B2, “Pyridazine derivatives as factor xia inhibitors” (Bristol-Myers Squibb Company, priority 2008, dated 2012).

For the experiment, the target named is T1, purified human Factor XIa (Homo sapiens, UniProt P03951).
T1 construct: purchased Haematologic Technologies
Description: Factor XIa assay (chromogenic substrate hydrolysis, Ki). In kind it is biochemical. The note with it: purified human Factor XIa 75-200 pM, substrate S-2366, 50 mM HEPES pH 7.4. How it is done:
The effectiveness of compounds of the present invention as inhibitors of the coagulation factors XIa, VIIa, IXa, Xa, XIIa, plasma kallikrein or thrombin, can be determined using a relevant purified serine protease, respectively, and an appropriate synthetic substrate. The rate of hydrolysis of the chromogenic or fluorogenic substrate by the relevant serine protease was measured both in the absence and presence of compounds of the present invention. […] A decrease in the rate of absorbance or fluorescence change in the presence of inhibitor is indicative of enzyme inhibition. Such methods are known to one skilled in the art. The results of this assay are expressed as the inhibitory constant, Ki.
Factor XIa determinations were made in 50 mM HEPES buffer at pH 7.4 containing 145 mM NaCl, 5 mM KCl, and 0.1% PEG 8000 (polyethylene glycol; JT Baker or Fisher Scientific). Determinations were made using purified human Factor XIa at a final concentration of 75-200 pM (Haematologic Technologies) and the synthetic substrate S-2366 (pyroGlu-Pro-Arg-pNA; Chromogenix or AnaSpec) at a concentration of 0.0002-0.001 M.
The Michaelis constant, Km, for substrate hydrolysis by each protease, was determined at 25° C. using the method of Lineweaver and Burk. Values of Ki were determined by allowing the protease to react with the substrate in the presence of the inhibitor. Reactions were allowed to go for periods of 20-180 minutes (depending on the protease) and the velocities (rate of absorbance or fluorescence change versus time) were measured. The following relationships were used to calculate Ki values: (vo−vs)/vs=I/(Ki(1+S/Km)) for a competitive inhibitor with one binding site; or vs/vo=A+((B−A)/1+((IC50/(I)^n))); and Ki=IC50/(1+S/Km) for a competitive inhibitor where: […]

T1 sequence (P03951 388-625 limits assumed): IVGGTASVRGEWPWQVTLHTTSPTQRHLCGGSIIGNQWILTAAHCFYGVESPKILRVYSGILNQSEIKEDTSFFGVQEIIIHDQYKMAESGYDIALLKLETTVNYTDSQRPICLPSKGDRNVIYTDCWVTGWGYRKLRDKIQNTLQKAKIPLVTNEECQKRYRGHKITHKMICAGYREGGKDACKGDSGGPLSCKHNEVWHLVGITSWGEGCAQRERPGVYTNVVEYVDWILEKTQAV
T1 sequence (P03951 19-387 partner limits assumed): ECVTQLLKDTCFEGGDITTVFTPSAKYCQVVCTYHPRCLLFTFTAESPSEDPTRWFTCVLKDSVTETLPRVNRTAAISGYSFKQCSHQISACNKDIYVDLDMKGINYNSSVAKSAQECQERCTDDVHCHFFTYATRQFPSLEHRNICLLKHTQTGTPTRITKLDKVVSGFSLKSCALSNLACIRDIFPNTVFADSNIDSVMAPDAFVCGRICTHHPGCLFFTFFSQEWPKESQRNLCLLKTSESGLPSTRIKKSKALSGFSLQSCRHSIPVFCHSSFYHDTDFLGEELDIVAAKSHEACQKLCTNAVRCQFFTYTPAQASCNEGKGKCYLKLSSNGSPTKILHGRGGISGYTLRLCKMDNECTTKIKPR

The compound `COC(=O)Nc1ccc(-c2cc([C@H](CC3CCN(C(=O)OCc4ccccc4)C3)NC(=O)/C=C/c3cc(Cl)ccc3-n3cnnn3)n[nH]c2=O)cc1` (stereo partly drawn) [Example 147, Benzyl 3-((S)-2-((E)-3-(5-chloro-2-(1H-tetrazol-1-yl)phenyl)acrylamido)-2-(5-(4-(methoxycarbonylamino)phenyl)-6-oxo-1,6-dihydropyridazin-3-yl)ethyl)pyrrolidine-1-carboxylate] came in with a Ki of 5150 nM. In the case of `COC(=O)Nc1ccc(-c2cc([C@H](Cc3ccncc3)NC(=O)/C=C/c3cc(Cl)ccc3-n3cnnn3)nnc2Cl)cc1` [Example 94, (S,E)-Methyl 4-(3-chloro-6-(1-(3-(5-chloro-2-(1H-tetrazol-1-yl)phenyl)acrylamido)-2-(pyridin-4-yl)ethyl)pyridazin-4-yl)phenylcarbamate], the Ki stood at 27 nM. Compound `COC(=O)Nc1ccc(-c2cc([C@H](CC3CCCNC3)NC(=O)/C=C/c3cc(Cl)ccc3-n3cnnn3)nnc2Cl)cc1` (single isomer, unassigned) [Example 99] displayed a Ki of 746 nM. Under `COC(=O)Nc1ccc(-c2cc([C@H](CC(=O)OC(C)(C)C)NC(=O)/C=C/c3cc(Cl)ccc3-n3cnnn3)n[nH]c2=O)cc1` [Example 146, (S,E)-tert-Butyl 3-(3-(5-chloro-2-(1H-tetrazol-1-yl)phenyl)acrylamido)-3-(5-(4-(methoxycarbonylamino)phenyl)-6-oxo-1,6-dihydropyridazin-3-yl)propanoate] stands 5.5 nM. For the compound `O=C(O)CCOC(=O)Nc1ccc(-c2cnnc([C@H](Cc3ccccc3)NC(=O)CCc3ccccc3-n3cnnn3)c2)cc1` [Example 60, (S)-3-(4-(6-(1-(3-(2-(1H-Tetrazol-1-yl)phenyl)propanamido)-2-phenylethyl)pyridazin-4-yl)phenylcarbamoyloxy)propanoic acid], the affinity, expressed as Ki, was 3370 nM. Under `COC(=O)Nc1ccc(-c2cc(C(CC(=O)OC(C)(C)C)NC(=O)/C=C/c3cc(Cl)ccc3-n3cnnn3)c(Cl)nn2)cc1` (single isomer, unassigned) [Example 20, (E)-tert-Butyl 3-(3-(5-chloro-2-(1H-tetrazol-1-yl)phenyl)acrylamido)-3-(3-chloro-6-(4-(methoxycarbonylamino)phenyl)pyridazin-4-yl)propanoate] stands 2.9 nM.

Consider `CCN1CCC(C[C@H](NC(=O)/C=C/c2cc(Cl)ccc2-n2cnnn2)c2cc(-c3ccc(NC(=O)OC)cc3)c(Cl)nn2)C1` (stereo partly drawn) [Example 116, Methyl 4-(3-chloro-6-((1S)-1-((E)-3-(5-chloro-2-(1 H-tetrazol-1-yl)phenyl)acrylamido)-2-(1-ethylpyrrolidin-3-yl)ethyl)pyridazin-4-yl)phenylcarbamate], for which the affinity, expressed as Ki, was 327 nM. As for `COC(=O)Nc1ccc(-c2cc([C@H](CC3CCCN(C(=O)C(C)C)C3)NC(=O)/C=C/c3cc(Cl)ccc3-n3cnnn3)nnc2Cl)cc1` (single isomer, unassigned) [Example 118], the Ki came out at 55 nM. Under `COC(=O)Nc1ccc(-c2cc([C@H](Cc3ccccc3)NC(=O)/C=C/c3cc(Cl)ccc3-n3cnnn3)n[nH]c2=O)cc1F` [Example 61, (S,E)-Methyl 4-(6-(1-(3-(5-chloro-2-(1H-tetrazol-1-yl)phenyl)acrylamido)-2-phenylethyl)-3-oxo-2,3-dihydropyridazin-4-yl)-2-fluorophenylcarbamate] stands 1680 nM; under `COC(=O)Nc1ccc(-c2cc(C(Cc3ccccc3)NC(=O)/C=C/c3cc(Cl)ccc3-n3cnnn3)c(Cl)nn2)cc1` (single isomer, unassigned) [Example 2, (E)-Methyl 4-(6-chloro-5-(1-(3-(5-chloro-2-(1H-tetrazol-1-yl)phenyl)acrylamido)-2-phenylethyl)pyridazin-3-yl)phenylcarbamate], 2 nM. Then `O=C(/C=C/c1cc(Cl)ccc1-n1cnnn1)N[C@@H](Cc1ccccc1)c1cc(-c2ccc(NC(=O)OC3CNC3)cc2)cnn1` [Example 89, (S,E)-Azetidin-3-yl 4-(6-(1-(3-(5-chloro-2-(1H-tetrazol-1-yl)phenyl)acrylamido)-2-phenylethyl)pyridazin-4-yl)phenylcarbamate], with 141 nM; and `O=C(/C=C/c1cc(Cl)ccc1-n1cnnn1)N[C@@H](Cc1ccccc1)c1cc(-c2ccc3[nH]c(=O)cc(O)c3c2)cnn1` [Example 78, (S,E)-3-(5-Chloro-2-(1H-tetrazol-1-yl)phenyl)-N-(1-(5-(4-hydroxy-2-oxo-1,2-dihydroquinolin-6-yl)pyridazin-3-yl)-2-phenylethyl)acrylamide], with 0.84 nM. Under `COC(=O)Nc1ccc(-c2cc(C(Cc3ccccc3)NC(=O)/C=C/c3cc(Cl)ccc3-n3ccnc3)c(Cl)nn2)cc1` (racemic) [Example 8, (±)-(E)-Methyl 4-(6-chloro-5-(1-(3-(5-chloro-2-(1H-imidazol-1-yl)phenyl)acrylamido)-2-phenylethyl)pyridazin-3-yl)phenylcarbamate] stands 1160 nM; under `CCn1ccc(C[C@H](NC(=O)/C=C/c2cc(Cl)ccc2-n2cnnn2)c2cc(-c3ccc(NC(=O)OC)cc3)c(Cl)nn2)n1` [Example 71, (S,E)-Methyl 4-(3-chloro-6-(1-(3-(5-chloro-2-(1H-tetrazol-1-yl)phenyl)acrylamido)-2-(1-ethyl-1H-pyrazol-3-yl)ethyl)pyridazin-4-yl)phenylcarbamate], 9.4 nM. Consider `COC(=O)Nc1ccc(-c2cc([C@H](Cc3ccccc3)NC(=O)/C=C/c3cc(Cl)ccc3-n3cnnn3)nn(C)c2=O)cc1` [Example 40, (S,E)-Methyl 4-(6-(1-(3-(5-chloro-2-(1H-tetrazol-1-yl)phenyl)acrylamido)-2-phenylethyl)-2-methyl-3-oxo-2,3-dihydropyridazin-4-yl)phenylcarbamate], for which the inhibitory constant (Ki) came out at 156 nM.

In turn, `COC(=O)Nc1ccc(-c2cc([C@H](CC3CCCN(S(C)(=O)=O)C3)NC(=O)/C=C/c3cc(Cl)ccc3-n3cnnn3)n[nH]c2=O)cc1` (stereo partly drawn) [Example 154, Methyl 4-(6-((1S)-1-((E)-3-(5-chloro-2-(1H-tetrazol-1-yl)phenyl)acrylamido)-2-(1-(methylsulfonyl)piperidin-3-yl)ethyl)-3-oxo-2,3-dihydropyridazin-4-yl)phenylcarbamate] had an inhibition constant (Ki) of 176 nM. Then `COC(=O)Nc1ccc(-c2cc([C@H](Cc3cscn3)NC(=O)/C=C/c3cc(Cl)ccc3-n3cnnn3)nnc2Cl)cc1` [Example 123, (S,E)-Methyl 4-(3-chloro-6-(1-(3-(5-chloro-2-(1H-tetrazol-1-yl)phenyl)acrylamido)-2-(thiazol-4-yl)ethyl)pyridazin-4-yl)phenylcarbamate], with 57 nM.

As for `COC(=O)Nc1ccc(-c2cc(C(Cc3ccccc3)NC(=O)/C=C/c3cc(Cl)ccc3-n3cnnn3)c(Cl)nn2)cc1` (single isomer, unassigned) [Example 3, (E)-Methyl 4-(6-chloro-5-(1-(3-(5-chloro-2-(1H-tetrazol-1-yl)phenyl)acrylamido)-2-phenylethyl)pyridazin-3-yl)phenylcarbamate], the Ki was determined as 630 nM. Under `COC(=O)Nc1ccc(-c2cc(C(C)NC(=O)/C=C/c3cc(Cl)ccc3-n3cnnn3)c(Cl)nn2)cc1` (racemic) [Example 11, (±)-(E)-Methyl 4-(6-chloro-5-(1-(3-(5-chloro-2-(1H-tetrazol-1-yl)phenyl)acrylamido)ethyl)pyridazin-3-yl)phenylcarbamate] stands 52 nM.
